Here are results for two compounds from patent US6395728B2, “Method of treatment and pharmaceutical composition” (Novartis AG, priority 1999, dated 2002).

This assay relates to diabetic SHRs. The assay is described as follows: Survival of streptozotocin-induced diabetic SHRs under drug treatment. As to conditions: week 21 of treatment. Format: in vivo, rat.

Protocol: Diabetes is induced in SHRs aged about 6 to 8 weeks weighing about 250 to 300 g by treatment e.g. with streptozotocin. The drugs are administered by twice daily average. Untreated diabetic SHRs are used as control group (group 1). Other groups of diabetic SHRs are treated with 30 mg/kg of valsartan (group 2), with 20 mg/kg of verapamil (group 3) and with a combination of 20 mg/kg of valsartan and 15 mg/kg of verapamil (group 4). On a regular basis, besides other parameters the survival rate after 21 weeks of treatment is being monitored.

Turning to `COc1ccc(CCN(C)CCCC(C#N)(c2ccc(OC)c(OC)c2)C(C)C)cc1OC` (centres unmarked) [verapamil], the “Survival Rate” value (20 mg/kg of verapamil (group 3)) is on record as 42.9%.

On to `CCCCC(=O)N(Cc1ccc(-c2ccccc2-c2nnn[nH]2)cc1)[C@H](C(=O)O)C(C)C` [valsartan, (S)-N-(1-carboxy-2-methyl-prop-1-yl)-N-pentanoyl-N-[2′(1H-tetrazol-5-yl)biphenyl-4-yl-methyl]amine], for which the “Survival Rate” value (30 mg/kg of valsartan (group 2)) is listed as 45.9%.
